The record followed here is patent US11999727B2 (Tango Therapeutics, Inc., priority 2020, dated 2024).

Like-named read-outs stand apart in the source and are kept apart here. Where only a bound is given, the exact number is not on record here.

Test [1] concerns the target T1, PRMT5 (Homo sapiens, UniProt O14744).
T1 construct: purchased Viva (custom protein)
The test is described as follows: PRMT5 biochemical IC50 assay with SAM as cofactor. The following applies: PRMT5, SAM as cofactor; read-out: SAM IC50.

Test [2] deals with T1, PRMT5. The test is described as follows: PRMT5 biochemical IC50 assay with no cofactor. The settings on record: PRMT5, no cofactor; read-out: No Cofactor/rel IC50. The text has this: Table 1 indicates IC50 values (μM) against PRMT5 for exemplary compounds in the presence of SAM as cofactor, with no cofactor, and with MTA as cofactor, respectively (columns 4-6). […] Ki values can be calculated from the IC50 values as described in the Examples section. As detailed in the Examples section, for the assay performed in the presence of SAM, IC50=Ki×1.5 (Ki=IC50/1.5).

For test [3], the target named is T1, PRMT5. The test is described as follows: PRMT5 biochemical IC50 assay with MTA as cofactor. The settings on record: PRMT5, MTA as cofactor; read-out: MTA IC50.
Test [4] concerns HAP1 MTAP-intact cell line. Nature of the test: SDMA in-cell western assay, HAP1 MTAP-intact. It is filed as cell-based. The following applies: HAP1 MTAP-intact, read-out: MTAP HAP1 intact IC50. The method, boiled down: (§1)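 Isogenic HAP1 pair: the MTAP-intact line expresses endogenous MTAP, and the deleted line is MTAP-null. Symmetric dimethylarginine was detected by in-cell western and IC50 values derived for each line.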

Test [5] concerns HAP1 MTAP-deleted cell line. The test is described as follows: SDMA in-cell western assay, HAP1 MTAP-deleted. It is filed as cell-based. The following applies: for IC50: HAP1 MTAP-deleted, read-out: HAP1 MTAP deleted IC50; for MTAP intact/deleted ratio: IC50 ratio HAP1 MTAP-intact / HAP1 MTAP-deleted. The method, boiled down: as §1
Test [6] has as its system HAP1 MTAP-deleted cell line. The test is described as follows: Viability assay, MTAP-deleted cell line. It counts as cell-based. The following applies: HAP1 MTAP-deleted, read-out: HAP1 MTAP deleted viability. The text has this:
Table 1 additionally indicates IC50 values in a viability assay for the MTAP-deleted cell line (column 10), indicating the effect of treatment with compound on cell survival.

Setting [7] is: Homo sapiens, HAP1, SDMA in-cell western.
[8] abbreviates: Homo sapiens, HAP1, viability assay.

T1 sequence (O14744 whole entry): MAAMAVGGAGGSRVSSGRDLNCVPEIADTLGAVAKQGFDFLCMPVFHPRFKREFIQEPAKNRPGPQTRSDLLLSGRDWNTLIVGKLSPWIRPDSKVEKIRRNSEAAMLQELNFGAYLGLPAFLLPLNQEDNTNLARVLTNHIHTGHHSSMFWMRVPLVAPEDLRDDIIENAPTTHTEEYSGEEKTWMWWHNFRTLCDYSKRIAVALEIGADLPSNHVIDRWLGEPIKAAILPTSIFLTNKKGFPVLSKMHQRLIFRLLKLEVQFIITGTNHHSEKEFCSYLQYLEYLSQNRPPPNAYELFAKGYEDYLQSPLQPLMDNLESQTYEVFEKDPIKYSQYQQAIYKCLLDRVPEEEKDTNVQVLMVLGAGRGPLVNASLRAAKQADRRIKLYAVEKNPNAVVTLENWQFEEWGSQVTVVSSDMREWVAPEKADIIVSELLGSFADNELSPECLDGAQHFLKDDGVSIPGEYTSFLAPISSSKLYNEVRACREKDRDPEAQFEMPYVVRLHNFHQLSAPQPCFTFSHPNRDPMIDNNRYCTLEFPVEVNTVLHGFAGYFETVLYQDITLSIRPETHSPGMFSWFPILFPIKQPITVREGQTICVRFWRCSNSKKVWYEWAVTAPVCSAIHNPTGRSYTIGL
T1 sequence (Q9BQA1 whole entry partner): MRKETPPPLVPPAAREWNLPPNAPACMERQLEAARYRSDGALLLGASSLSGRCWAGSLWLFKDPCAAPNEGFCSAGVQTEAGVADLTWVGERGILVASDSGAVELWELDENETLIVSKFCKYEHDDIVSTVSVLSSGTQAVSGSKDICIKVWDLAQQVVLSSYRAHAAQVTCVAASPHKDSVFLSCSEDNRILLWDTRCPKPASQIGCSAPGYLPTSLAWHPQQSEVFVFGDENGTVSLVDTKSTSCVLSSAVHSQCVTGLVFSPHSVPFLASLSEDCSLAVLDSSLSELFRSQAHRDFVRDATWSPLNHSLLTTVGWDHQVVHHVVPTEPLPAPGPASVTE

With `C[C@@H]1CC[C@@H](c2ccc3c(c2)C(=O)NC3)N(C(=O)C(=O)Nc2cncc(C(N)=O)c2)C1` (single isomer, unassigned) [Compound 746], the IC50 at PRMT5 [1] was 50 to 500 nM; on PRMT5 [2], < 50 nM; on PRMT5 [3], < 50 nM; in test [4] (setting [7]), > 1000 nM; in test [5] (setting [7]), 100 to 1000 nM; in test [6] (setting [8]), 1000 to 10000 nM. In test [5] (SDMA in-cell western), the MTAP intact/deleted ratio result is recorded as “A (an IC50 ratio greater than or equal to 10 fold)”.

Regarding `CCc1cc(NC(=O)C(=O)N2C[C@@H](C)CC[C@@H]2c2ccc3[nH]cnc3c2)cnc1N` (single isomer, unassigned) [Compound 748], the IC50 at PRMT5 [1] was 50 to 500 nM; at PRMT5 [2], < 50 nM; on PRMT5 [3] it was < 50 nM; in test [4] (setting [7]) it was 100 to 1000 nM; in test [5] (setting [7]), < 100 nM; in test [6] (setting [8]), < 1000 nM. Further, the MTAP intact/deleted ratio result in test [5] (SDMA in-cell western) was “A (an IC50 ratio greater than or equal to 10 fold)”.

Take `COc1ncc(NC(=O)C(=O)N2C[C@H](C)CC[C@H]2c2ccc3c(c2)CNC3=O)cc1C(N)=O` (single isomer, unassigned) [Compound 749, 2-methoxy-5-(2-(5-methyl-2-(1-oxoisoindolin-5-yl)piperidin-1-yl)-2-oxoacetamido)nicotinamide]: the IC50 on PRMT5 [1] was 50 to 500 nM; at PRMT5 [2], 50 to 500 nM; on PRMT5 [3], < 50 nM; in test [4] (setting [7]), > 1000 nM; in test [5] (setting [7]), 100 to 1000 nM; in test [6] (setting [8]), 1000 to 10000 nM. The MTAP intact/deleted ratio entry in test [5] (SDMA in-cell western) is recorded as “A (an IC50 ratio greater than or equal to 10 fold)”.

For the compound `COc1ncc(NC(=O)C(=O)N2C[C@@H](C)CC[C@@H]2c2ccc3c(c2)CNC3=O)cc1C(N)=O` (single isomer, unassigned) [Compound 750, 2-methoxy-5-(2-(5-methyl-2-(1-oxoisoindolin-5-yl)piperidin-1-yl)-2-oxoacetamido)nicotinamide], the IC50 on PRMT5 [1] was > 500 nM; at PRMT5 [2], > 500 nM; at PRMT5 [3] it was > 500 nM; in test [4] (setting [7]), > 1000 nM; in test [5] (setting [7]), > 1000 nM; in test [6] (setting [8]), > 10000 nM. Further, the MTAP intact/deleted ratio result in test [5] (SDMA in-cell western) is given as “C (an IC50 ratio of less than 3 fold)”.

On to `C[C@H]1CC[C@H](c2ccc3c(c2)C(=O)NC3)N(C(=O)C(=O)Nc2cncc(C(N)=O)c2)C1` (single isomer, unassigned) [Compound 751], for which the IC50 at PRMT5 [1] was > 500 nM; at PRMT5 [2], > 500 nM; on PRMT5 [3], > 500 nM; in test [4] (setting [7]), > 1000 nM; in test [5] (setting [7]), > 1000 nM; in test [6] (setting [8]) it was > 10000 nM. Moreover, the MTAP intact/deleted ratio entry in test [5] (SDMA in-cell western) was “C (an IC50 ratio of less than 3 fold)”.

Turning to `COc1ncc(NC(=O)C(=O)N2C[C@H](C)CC[C@H]2c2ccc(C)nc2)cc1C(N)=O` (single isomer, unassigned) [Compound 754], the IC50 on PRMT5 [1] was 50 to 500 nM; at PRMT5 [2], 50 to 500 nM; on PRMT5 [3] it was < 50 nM; in test [4] (setting [7]) it was > 1000 nM; in test [5] (setting [7]) it was < 100 nM; in test [6] (setting [8]), 1000 to 10000 nM. The MTAP intact/deleted ratio result in test [5] (SDMA in-cell western) is “A (an IC50 ratio greater than or equal to 10 fold)”.

As to `CCc1cc(NC(=O)C(=O)N2C[C@H](C)CC[C@H]2c2ccc(C)nc2)cnc1N` (single isomer, unassigned) [Compound 756], the IC50 on PRMT5 [1] is > 500 nM; on PRMT5 [2], > 500 nM; on PRMT5 [3], > 500 nM; in test [4] (setting [7]), > 1000 nM; in test [5] (setting [7]) it was > 1000 nM; in test [6] (setting [8]), > 10000 nM. Moreover, the MTAP intact/deleted ratio entry in test [5] (SDMA in-cell western) was “B (an IC50 ratio greater than or equal to 3 fold but lower than 10 fold)”.

Consider `COc1ncc(NC(=O)C(=O)N2C[C@H](C)CC[C@H]2c2ccc(NC(C)=O)cc2)cc1C(N)=O` (single isomer, unassigned) [Compound 760], for which the IC50 was 50 to 500 nM at PRMT5 [1]; < 50 nM at PRMT5 [2]; < 50 nM at PRMT5 [3]; > 1000 nM in test [4] (setting [7]); < 100 nM in test [5] (setting [7]); < 1000 nM in test [6] (setting [8]). For the same compound, the MTAP intact/deleted ratio result in test [5] (SDMA in-cell western) is given as “A (an IC50 ratio greater than or equal to 10 fold)”.

With `COc1ncc(NC(=O)C(=O)N2C[C@@H](C)CC[C@@H]2c2ccc(NC(C)=O)cc2)cc1C(N)=O` (single isomer, unassigned) [Compound 761], the IC50 at PRMT5 [1] was > 500 nM; at PRMT5 [2], > 500 nM; at PRMT5 [3], > 500 nM; in test [4] (setting [7]), > 1000 nM; in test [5] (setting [7]), > 1000 nM; in test [6] (setting [8]) it was > 10000 nM. In addition, the MTAP intact/deleted ratio result in test [5] (SDMA in-cell western) is reported as “C (an IC50 ratio of less than 3 fold)”.

As to `Cc1cc(NC(=O)C(=O)N2C[C@@H](C)CC[C@@H]2c2ccc3[nH]c(=O)ccc3c2)cnc1N` (single isomer, unassigned) [Compound 762], the IC50 at PRMT5 [1] is < 50 nM; on PRMT5 [2], < 50 nM; at PRMT5 [3], < 50 nM; in test [4] (setting [7]), < 100 nM; in test [5] (setting [7]), < 100 nM; in test [6] (setting [8]), < 1000 nM. Besides, in test [5] (SDMA in-cell western), the MTAP intact/deleted ratio result was “B (an IC50 ratio greater than or equal to 3 fold but lower than 10 fold)”.

With `Cc1cc(NC(=O)C(=O)N2C[C@H](C)CC[C@H]2c2ccc3[nH]c(=O)ccc3c2)cnc1N` (single isomer, unassigned) [Compound 763], the IC50 on PRMT5 [1] is > 500 nM; at PRMT5 [2], > 500 nM; at PRMT5 [3], > 500 nM; in test [4] (setting [7]), > 1000 nM; in test [5] (setting [7]), > 1000 nM; in test [6] (setting [8]), > 10000 nM. Besides, the MTAP intact/deleted ratio entry in test [5] (SDMA in-cell western) was “B (an IC50 ratio greater than or equal to 3 fold but lower than 10 fold)”.

For `CCOc1ncc(NC(=O)C(=O)N2C[C@@H](C)CC[C@@H]2c2ccccc2)cc1C(N)=O` (single isomer, unassigned) [Compound 764], the IC50 is 50 to 500 nM on PRMT5 [1]; 50 to 500 nM on PRMT5 [2]; < 50 nM on PRMT5 [3]; > 1000 nM in test [4] (setting [7]); 100 to 1000 nM in test [5] (setting [7]); 1000 to 10000 nM in test [6] (setting [8]). Besides, the MTAP intact/deleted ratio result in test [5] (SDMA in-cell western) was “A (an IC50 ratio greater than or equal to 10 fold)”.

For `CCOc1ncc(NC(=O)C(=O)N2C[C@H](C)CC[C@H]2c2ccccc2)cc1C(N)=O` (single isomer, unassigned) [Compound 765], the IC50 at PRMT5 [1] was > 500 nM; at PRMT5 [2], > 500 nM; on PRMT5 [3], > 500 nM; in test [4] (setting [7]), > 1000 nM; in test [5] (setting [7]), > 1000 nM; in test [6] (setting [8]), > 10000 nM. The MTAP intact/deleted ratio result in test [5] (SDMA in-cell western) is on record as “C (an IC50 ratio of less than 3 fold)”.

Turning to `[H][C@]1([C@]2([H])C[C@]3(C[C@H](O)C3)C2)CC[C@H](C)CN1C(=O)C(=O)Nc1cnc(N)c(C)c1` (single isomer, unassigned) [Compound 766], the IC50 at PRMT5 [1] is > 500 nM; on PRMT5 [2], > 500 nM; on PRMT5 [3] it was > 500 nM; in test [4] (setting [7]), > 1000 nM; in test [5] (SDMA in-cell western) it was > 1000 nM; in test [6] (setting [8]), > 10000 nM. The MTAP intact/deleted ratio result in test [5] (SDMA in-cell western) is recorded as “C (an IC50 ratio of less than 3 fold)”.

On to `[H][C@@]1([C@]2([H])C[C@@]3(C[C@H](O)C3)C2)CC[C@@H](C)CN1C(=O)C(=O)Nc1cnc(N)c(C)c1` (single isomer, unassigned) [Compound 767], for which the IC50 was 50 to 500 nM on PRMT5 [1]; > 500 nM on PRMT5 [2]; 50 to 500 nM on PRMT5 [3]; > 1000 nM in test [4] (setting [7]); > 1000 nM in test [5] (setting [7]); > 10000 nM in test [6] (setting [8]). Besides, the MTAP intact/deleted ratio result in test [5] (SDMA in-cell western) is reported as “B (an IC50 ratio greater than or equal to 3 fold but lower than 10 fold)”.

As for `[H][C@]1([C@]2([H])C[C@@]3(C[C@H](O)C3)C2)CC[C@H](C)CN1C(=O)C(=O)Nc1cnc(N)c(C)c1` (single isomer, unassigned) [Compound 768], the IC50 was 50 to 500 nM on PRMT5 [1]; 50 to 500 nM on PRMT5 [2]; 50 to 500 nM at PRMT5 [3]; > 1000 nM in test [4] (SDMA in-cell western); 100 to 1000 nM in test [5] (SDMA in-cell western); > 10000 nM in test [6] (viability assay). Besides, the MTAP intact/deleted ratio entry in test [5] (SDMA in-cell western) is listed as “B (an IC50 ratio greater than or equal to 3 fold but lower than 10 fold)”.

With `[H][C@@]1([C@]2([H])C[C@]3(C[C@H](O)C3)C2)CC[C@@H](C)CN1C(=O)C(=O)Nc1cnc(N)c(C)c1` (single isomer, unassigned) [Compound 769], the IC50 on PRMT5 [1] was > 500 nM; on PRMT5 [2], > 500 nM; at PRMT5 [3], > 500 nM; in test [4] (SDMA in-cell western) it was > 1000 nM; in test [5] (SDMA in-cell western), > 1000 nM; in test [6] (viability assay), > 10000 nM. In test [5] (SDMA in-cell western), the MTAP intact/deleted ratio result was “C (an IC50 ratio of less than 3 fold)”.
